From US4055637A, “Medicinal preparation for healing wounds and treating dermatites using 1-(chloromethyl)silatrane” (priority 1975, dated 1977)

Assay: solubility and physical properties of the active principle
Assay type: physicochemical

With `ClC[Si]12OCCN(CCO1)CCO2` [1-(chloromethyl)silatrane] the solubility in alcohol (alcohol) was “difficultly soluble”, the solubility in chloroform (chloroform) was “readily soluble” and the sterilizability (dry state) was “sterilizable in a dry state”. The solubility in ether (ether) was “insoluble”, the solubility in water (water) was “poorly soluble” and the hygroscopicity (white crystalline powder) was “non-hygroscopic”.
